Legend:
Test in all cases: KINOMEscan
Assay type in all cases: binding
Settings in all cases: 35 at 1 µM; read-out: % inhibition
[1] = target: T1, YANK2 (Homo sapiens, UniProt Q9NY57)
T1 construct: purchased EuroFins DiscoverX (Fremont, CA, USA)
Method: (§1) KinomeScan Assay on 35 was performed as previously described at EuroFins DiscoverX (Fremont, CA, USA).

[2] = target: T2, EPHB2 (Homo sapiens, UniProt P29323)
T2 construct: purchased Eurofins DiscoverX (KINOMEscan)
Method: as §1

[3] = target: T3, DRAK1 (Homo sapiens, UniProt Q9UEE5)
T3 construct: purchased Eurofins DiscoverX (KINOMEscan)
Method: as §1

[4] = target: T4, TEC (Homo sapiens, UniProt P42680)
T4 construct: purchased Eurofins DiscoverX (KINOMEscan)
Method: as §1

[5] = target: T5, EPHA3 (Homo sapiens, UniProt P29320)
T5 construct: purchased Eurofins DiscoverX (KINOMEscan)
Method: as §1

[6] = target: T6, CDK4-cyclinD1 (Homo sapiens, UniProt P11802)
T6 construct: purchased Eurofins DiscoverX (KINOMEscan)
Method: as §1

[7] = target: T7, GRK1 (Homo sapiens, UniProt Q15835)
T7 construct: purchased Eurofins DiscoverX (KINOMEscan)
Method: as §1

[8] = target: T8, p38-beta (Homo sapiens, UniProt Q15759)
T8 construct: purchased Eurofins DiscoverX (KINOMEscan)
Method: as §1

[9] = target: T9, NEK1 (Homo sapiens, UniProt Q96PY6)
T9 construct: purchased Eurofins DiscoverX (KINOMEscan)
Method: as §1

[10] = target: T10, ABL1(F317I)-phosphorylated (Homo sapiens, UniProt P00519, F317I)
T10 construct: purchased Eurofins DiscoverX (KINOMEscan)
Method: as §1

[11] = target: T11, PIP5K2C (Homo sapiens, UniProt Q8TBX8)
T11 construct: purchased Eurofins DiscoverX (KINOMEscan)
Method: as §1

[12] = target: T12, PRKD2 (Homo sapiens, UniProt Q9BZL6)
T12 construct: purchased Eurofins DiscoverX (KINOMEscan)
Method: as §1

[13] = target: T13, CDK4-cyclinD3 (Homo sapiens, UniProt P11802)
T13 construct: purchased Eurofins DiscoverX (KINOMEscan)
Method: as §1

[14] = target: T14, QSK (Homo sapiens, UniProt Q9Y2K2)
T14 construct: purchased Eurofins DiscoverX (KINOMEscan)
Method: as §1

[15] = target: T15, PCTK3 (Homo sapiens, UniProt Q07002)
T15 construct: purchased Eurofins DiscoverX (KINOMEscan)
Method: as §1

[16] = target: T16, NEK2 (Homo sapiens, UniProt P51955)
T16 construct: purchased Eurofins DiscoverX (KINOMEscan)
Method: as §1

[17] = target: T17, ABL1-nonphosphorylated (Homo sapiens, UniProt P00519)
T17 construct: purchased Eurofins DiscoverX (KINOMEscan)
Method: as §1

[18] = target: T18, CIT (Homo sapiens, UniProt O14578)
T18 construct: purchased Eurofins DiscoverX (KINOMEscan)
Method: as §1

[19] = target: T19, PCTK1 (Homo sapiens, UniProt Q00536)
T19 construct: purchased Eurofins DiscoverX (KINOMEscan)
Method: as §1

[20] = target: T20, RSK2(Kin.Dom.1-N-terminal) (Homo sapiens, UniProt P51812)
T20 construct: RSK2(Kin.Dom.1-N-terminal); purchased Eurofins DiscoverX (KINOMEscan)
Method: as §1

[21] = target: T21, CSNK1A1L (Homo sapiens, UniProt Q8N752)
T21 construct: purchased Eurofins DiscoverX (KINOMEscan)
Method: as §1

[22] = target: T22, PIM2 (Homo sapiens, UniProt Q9P1W9)
T22 construct: purchased Eurofins DiscoverX (KINOMEscan)
Method: as §1

[23] = target: T23, CAMKK1 (Homo sapiens, UniProt Q8N5S9)
T23 construct: purchased Eurofins DiscoverX (KINOMEscan)
Method: as §1

[24] = target: T24, FLT3(R834Q) (Homo sapiens, UniProt P36888, R834Q)
T24 construct: purchased Eurofins DiscoverX (KINOMEscan)
Method: as §1

[25] = target: T25, PIK3CA(C420R) (Homo sapiens, UniProt P42336, C420R)
T25 construct: purchased Eurofins DiscoverX (KINOMEscan)
Method: as §1

[26] = target: T26, TIE2 (Homo sapiens, UniProt Q02763)
T26 construct: purchased Eurofins DiscoverX (KINOMEscan)
Method: as §1

[27] = target: T27, MARK3 (Homo sapiens, UniProt P27448)
T27 construct: purchased Eurofins DiscoverX (KINOMEscan)
Method: as §1

[28] = target: T28, EPHA2 (Homo sapiens, UniProt P29317)
T28 construct: purchased Eurofins DiscoverX (KINOMEscan)
Method: as §1

[29] = target: T29, PIK3CG (Homo sapiens, UniProt P48736)
T29 construct: purchased Eurofins DiscoverX (KINOMEscan)
Method: as §1

[30] = target: T30, SIK (Homo sapiens, UniProt P57059)
T30 construct: purchased Eurofins DiscoverX (KINOMEscan)
Method: as §1

[31] = target: T31, DAPK3 (Homo sapiens, UniProt O43293)
T31 construct: purchased Eurofins DiscoverX (KINOMEscan)
Method: as §1

[32] = target: T32, MST1 (Homo sapiens, UniProt Q13043)
T32 construct: purchased Eurofins DiscoverX (KINOMEscan)
Method: as §1

[33] = target: T33, BMPR1A (Homo sapiens, UniProt P36894)
T33 construct: purchased Eurofins DiscoverX (KINOMEscan)
Method: as §1

[34] = target: T34, NEK6 (Homo sapiens, UniProt Q9HC98)
T34 construct: purchased Eurofins DiscoverX (KINOMEscan)
Method: as §1

[35] = target: T35, PLK4 (Homo sapiens, UniProt O00444)
T35 construct: purchased Eurofins DiscoverX (KINOMEscan)
Method: as §1

[36] = target: T36, TBK1 (Homo sapiens, UniProt Q9UHD2)
T36 construct: purchased Eurofins DiscoverX (KINOMEscan)
Method: as §1

[37] = target: T37, NEK11 (Homo sapiens, UniProt Q8NG66)
T37 construct: purchased Eurofins DiscoverX (KINOMEscan)
Method: as §1

[38] = target: T38, MEK3 (Homo sapiens, UniProt P46734)
T38 construct: purchased Eurofins DiscoverX (KINOMEscan)
Method: as §1

[39] = target: T39, NEK10 (Homo sapiens, UniProt Q6ZWH5)
T39 construct: purchased Eurofins DiscoverX (KINOMEscan)
Method: as §1

[40] = target: T40, DCAMKL1 (Homo sapiens, UniProt O15075)
T40 construct: purchased Eurofins DiscoverX (KINOMEscan)
Method: as §1

[41] = target: T41, TAOK1 (Homo sapiens, UniProt Q7L7X3)
T41 construct: purchased Eurofins DiscoverX (KINOMEscan)
Method: as §1

[42] = target: T42, HIPK3 (Homo sapiens, UniProt Q9H422)
T42 construct: purchased Eurofins DiscoverX (KINOMEscan)
Method: as §1

[43] = target: T43, PDGFRB (Homo sapiens, UniProt P09619)
T43 construct: purchased Eurofins DiscoverX (KINOMEscan)
Method: as §1

Measured: activity at 1 µM

T35 sequence (O00444 whole entry): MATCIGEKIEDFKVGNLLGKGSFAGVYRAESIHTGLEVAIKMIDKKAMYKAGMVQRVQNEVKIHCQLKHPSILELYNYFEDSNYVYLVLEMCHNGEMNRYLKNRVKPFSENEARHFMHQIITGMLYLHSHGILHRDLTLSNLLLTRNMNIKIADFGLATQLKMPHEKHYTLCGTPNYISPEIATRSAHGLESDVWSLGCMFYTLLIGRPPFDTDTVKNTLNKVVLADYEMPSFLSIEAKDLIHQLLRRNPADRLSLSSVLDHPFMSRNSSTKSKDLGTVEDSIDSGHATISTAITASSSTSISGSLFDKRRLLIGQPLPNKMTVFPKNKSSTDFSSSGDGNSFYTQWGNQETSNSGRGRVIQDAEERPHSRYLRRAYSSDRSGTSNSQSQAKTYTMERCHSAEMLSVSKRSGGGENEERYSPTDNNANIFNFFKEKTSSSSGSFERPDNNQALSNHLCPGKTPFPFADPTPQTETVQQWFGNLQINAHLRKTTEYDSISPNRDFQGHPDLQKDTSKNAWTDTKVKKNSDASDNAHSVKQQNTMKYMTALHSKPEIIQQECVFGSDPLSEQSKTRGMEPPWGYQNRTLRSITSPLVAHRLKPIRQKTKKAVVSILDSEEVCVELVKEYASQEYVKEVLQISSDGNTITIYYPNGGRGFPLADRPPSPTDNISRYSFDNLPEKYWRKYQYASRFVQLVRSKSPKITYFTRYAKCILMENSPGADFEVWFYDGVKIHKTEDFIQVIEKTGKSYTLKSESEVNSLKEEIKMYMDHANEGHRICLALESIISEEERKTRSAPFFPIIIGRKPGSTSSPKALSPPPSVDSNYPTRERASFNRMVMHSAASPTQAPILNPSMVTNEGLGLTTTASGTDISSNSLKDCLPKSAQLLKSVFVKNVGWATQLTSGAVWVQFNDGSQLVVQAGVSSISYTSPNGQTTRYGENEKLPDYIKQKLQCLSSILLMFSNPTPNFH
T14 sequence (Q9Y2K2 whole entry): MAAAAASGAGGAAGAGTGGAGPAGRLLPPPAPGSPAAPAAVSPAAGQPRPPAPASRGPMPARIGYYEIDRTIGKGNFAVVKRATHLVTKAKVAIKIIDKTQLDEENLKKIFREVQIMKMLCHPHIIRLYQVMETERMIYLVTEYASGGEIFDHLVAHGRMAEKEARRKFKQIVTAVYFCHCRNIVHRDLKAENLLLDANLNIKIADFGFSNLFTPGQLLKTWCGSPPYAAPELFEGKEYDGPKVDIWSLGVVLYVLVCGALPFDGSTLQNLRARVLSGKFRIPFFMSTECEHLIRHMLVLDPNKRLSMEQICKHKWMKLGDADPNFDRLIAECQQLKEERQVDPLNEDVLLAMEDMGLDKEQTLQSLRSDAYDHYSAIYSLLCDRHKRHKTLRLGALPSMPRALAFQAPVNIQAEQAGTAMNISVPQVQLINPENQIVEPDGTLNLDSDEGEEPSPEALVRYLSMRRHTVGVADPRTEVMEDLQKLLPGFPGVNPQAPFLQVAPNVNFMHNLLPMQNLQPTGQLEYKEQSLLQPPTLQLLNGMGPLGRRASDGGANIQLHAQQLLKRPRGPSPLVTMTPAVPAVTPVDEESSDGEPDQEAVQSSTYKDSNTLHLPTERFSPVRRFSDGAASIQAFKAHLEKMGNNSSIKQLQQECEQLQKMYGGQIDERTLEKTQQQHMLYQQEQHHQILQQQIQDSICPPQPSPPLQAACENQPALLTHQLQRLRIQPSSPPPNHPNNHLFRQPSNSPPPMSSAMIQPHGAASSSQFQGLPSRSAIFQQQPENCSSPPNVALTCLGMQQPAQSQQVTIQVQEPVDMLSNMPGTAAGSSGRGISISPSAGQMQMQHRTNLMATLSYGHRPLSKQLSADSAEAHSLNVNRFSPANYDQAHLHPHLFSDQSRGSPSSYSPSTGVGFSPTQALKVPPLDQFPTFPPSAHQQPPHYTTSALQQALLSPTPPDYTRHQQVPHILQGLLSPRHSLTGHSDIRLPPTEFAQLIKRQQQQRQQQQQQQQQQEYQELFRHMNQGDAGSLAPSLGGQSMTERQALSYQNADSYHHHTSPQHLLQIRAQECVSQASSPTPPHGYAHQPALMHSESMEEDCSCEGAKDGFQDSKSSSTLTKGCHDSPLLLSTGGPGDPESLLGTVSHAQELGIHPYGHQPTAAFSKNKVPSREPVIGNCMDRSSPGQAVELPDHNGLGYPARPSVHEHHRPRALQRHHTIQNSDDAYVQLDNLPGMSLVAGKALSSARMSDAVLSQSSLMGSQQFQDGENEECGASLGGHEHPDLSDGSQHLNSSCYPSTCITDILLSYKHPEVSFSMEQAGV
T21 sequence (Q8N752 whole entry): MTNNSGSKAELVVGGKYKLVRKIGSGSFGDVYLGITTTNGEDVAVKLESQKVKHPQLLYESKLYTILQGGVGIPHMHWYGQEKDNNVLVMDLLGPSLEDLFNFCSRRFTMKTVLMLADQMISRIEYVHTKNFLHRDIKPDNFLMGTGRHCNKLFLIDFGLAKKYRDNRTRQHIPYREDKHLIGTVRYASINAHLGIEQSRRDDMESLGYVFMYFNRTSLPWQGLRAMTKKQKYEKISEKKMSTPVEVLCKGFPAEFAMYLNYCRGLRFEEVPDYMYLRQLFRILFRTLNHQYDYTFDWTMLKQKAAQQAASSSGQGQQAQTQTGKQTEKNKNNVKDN
T16 sequence (P51955 whole entry): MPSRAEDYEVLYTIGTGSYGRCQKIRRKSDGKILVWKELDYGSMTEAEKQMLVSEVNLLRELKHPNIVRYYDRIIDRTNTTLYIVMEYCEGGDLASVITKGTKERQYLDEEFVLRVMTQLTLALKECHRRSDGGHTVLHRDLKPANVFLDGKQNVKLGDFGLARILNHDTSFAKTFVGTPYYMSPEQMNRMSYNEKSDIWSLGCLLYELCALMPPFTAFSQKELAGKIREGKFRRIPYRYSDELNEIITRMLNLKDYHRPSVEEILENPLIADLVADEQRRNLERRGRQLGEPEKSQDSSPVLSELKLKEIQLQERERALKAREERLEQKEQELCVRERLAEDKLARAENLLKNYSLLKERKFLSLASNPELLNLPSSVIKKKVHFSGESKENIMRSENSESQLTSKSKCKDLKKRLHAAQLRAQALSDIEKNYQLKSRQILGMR
T36 sequence (Q9UHD2 whole entry): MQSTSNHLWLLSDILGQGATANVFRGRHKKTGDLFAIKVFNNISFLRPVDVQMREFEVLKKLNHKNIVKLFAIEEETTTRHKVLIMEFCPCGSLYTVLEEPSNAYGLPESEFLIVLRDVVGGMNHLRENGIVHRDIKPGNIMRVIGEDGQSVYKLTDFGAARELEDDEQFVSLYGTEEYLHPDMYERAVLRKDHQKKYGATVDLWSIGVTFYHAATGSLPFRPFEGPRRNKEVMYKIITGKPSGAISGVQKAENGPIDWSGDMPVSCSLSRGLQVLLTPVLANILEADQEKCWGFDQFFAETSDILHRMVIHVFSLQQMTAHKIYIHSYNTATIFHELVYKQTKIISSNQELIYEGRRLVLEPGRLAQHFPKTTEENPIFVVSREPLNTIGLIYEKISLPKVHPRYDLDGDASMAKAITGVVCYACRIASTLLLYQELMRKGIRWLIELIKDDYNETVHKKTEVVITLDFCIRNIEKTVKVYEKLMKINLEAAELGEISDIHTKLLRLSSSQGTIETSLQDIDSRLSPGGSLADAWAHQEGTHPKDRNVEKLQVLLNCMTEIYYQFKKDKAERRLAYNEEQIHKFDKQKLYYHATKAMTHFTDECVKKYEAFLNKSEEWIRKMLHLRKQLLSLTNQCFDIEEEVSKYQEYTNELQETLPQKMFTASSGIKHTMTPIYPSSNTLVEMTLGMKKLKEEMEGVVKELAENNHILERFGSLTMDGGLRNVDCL
T19 sequence (Q00536 whole entry): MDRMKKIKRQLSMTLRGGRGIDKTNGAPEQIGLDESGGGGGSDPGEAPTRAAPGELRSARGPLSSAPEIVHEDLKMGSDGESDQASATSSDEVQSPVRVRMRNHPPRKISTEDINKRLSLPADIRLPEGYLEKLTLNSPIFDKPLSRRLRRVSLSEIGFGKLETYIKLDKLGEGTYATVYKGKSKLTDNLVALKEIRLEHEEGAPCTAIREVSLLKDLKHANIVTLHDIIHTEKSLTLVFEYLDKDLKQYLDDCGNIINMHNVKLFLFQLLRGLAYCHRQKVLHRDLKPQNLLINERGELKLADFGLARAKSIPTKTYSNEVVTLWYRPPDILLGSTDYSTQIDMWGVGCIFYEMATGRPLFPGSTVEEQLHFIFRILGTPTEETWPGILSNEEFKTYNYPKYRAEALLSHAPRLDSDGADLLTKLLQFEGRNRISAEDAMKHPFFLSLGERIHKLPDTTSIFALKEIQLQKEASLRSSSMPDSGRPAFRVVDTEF
T31 sequence (O43293 whole entry): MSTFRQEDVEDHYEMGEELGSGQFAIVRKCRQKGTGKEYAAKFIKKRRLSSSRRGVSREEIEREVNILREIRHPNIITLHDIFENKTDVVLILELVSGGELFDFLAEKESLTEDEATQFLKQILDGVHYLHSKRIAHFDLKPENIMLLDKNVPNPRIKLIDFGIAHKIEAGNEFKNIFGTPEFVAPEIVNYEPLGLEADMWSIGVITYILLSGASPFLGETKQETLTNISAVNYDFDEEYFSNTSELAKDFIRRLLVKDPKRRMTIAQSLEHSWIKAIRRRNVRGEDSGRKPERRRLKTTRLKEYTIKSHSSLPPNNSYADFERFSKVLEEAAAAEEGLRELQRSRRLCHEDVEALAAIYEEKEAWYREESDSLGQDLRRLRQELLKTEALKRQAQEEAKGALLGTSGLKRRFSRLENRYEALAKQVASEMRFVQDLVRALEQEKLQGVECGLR

Brc1ccc2nccc(Nc3ccc4cn[nH]c4c3)c2c1 [Compound 35, 6-Bromo-N-(1H-indazol-6-yl)quinolin-4-amine]
68%: [7]
76%: [36]
88%: [17] | [31]
86%: [16] | [18] | [38]
95%: [11] | [41]
83%: [24]
98%: [19]
90%: [12] | [20]
96%: [21]
87%: [42]
99%: [40]
100%: all other assays above

— publication PMC6891286, “Towards the Development of an In vivo Chemical Probe for Cyclin G Associated Kinase (GAK)” (Molecules, 2019)
